Molecules are shown by their SMILES. Like-named read-outs stand apart in the source and are kept apart here.

In general, IC50 refers to the point on the concentration scale where inhibition reaches its midpoint.

One experiment addresses Factor XIa (Homo sapiens, UniProt P03951). Put plainly: Factor XIa inhibition assay (FLINT) utilizing a fluorophore-quencher pair peptide substrate 5Fam-[…]-K5Tamra. It counts as biochemical. The note with it: kinetic (KIN) reads, read-out: FXIa KIN Inh IC50. From the text:
Biological Example 1: Factor XIa Inhibition Assay Utilizing a Fluorophore-Quencher Pair Peptide Substrate A fluorescence intensity (FLINT) based assay was used to monitor inhibition of Factor XIa. The peptide substrate, 5Fam-[…]-K5Tamra (purchased from New England Peptide) was chosen based on the FXI sequence. Conversion of zymogen FXI to its activated form, FXIa, occurs by proteolytic cleavage by […] at two sites, Arg146 and Arg180. The custom peptide used in this assay was based on the Arg146 cleavage site of FXI. The peptide substrate was designed with a fluorophore-quencher pair, where the fluorescence is quenched until FXIa cleaves the 8-mer peptide after the Arg residue.
The Factor XIa FLINT assay was used with the following 5Fam-[…]-K5Tamra assay buffer: 50 mM Tris, pH 7.5, 100 mM NaCl, 5 mM CaCl2, 0.1 mg/mL BSA, 0.03% CHAPS. Assay buffer was prepared by mixing all ingredients fresh. 5Fam-[…]-K5Tamra peptide substrate was first prepared at 10 mM in 100% DMSO, then diluted to 3 mM in 100% DMSO. Assay buffer was then added directly to the 3 mM stock of substrate to prepare the 30 μM 2× working concentration (15 μM final concentration). The 2× Factor XIa stock solution was prepared by diluting 6.562 μM stock in 1× assay buffer for a […].
Test compound(s) were run in an 11-point, 3-fold serial dilution with a final top compound concentration of 100 nM. Final DMSO in assay was 2%. FXIa was preincubated with compound for 30-minutes and then substrate was added to initiate the reaction. The assay was run with kinetic (KIN) reads at 5 min intervals over 30 minutes. […] More specifically, the assay was run as follows: • 100 nL of 0.01 mM test compound was dispensed into black 384-well non-binding Greiner BioOne 784900 plate for 0.1 μM final concentration; • 5 μL of 1× assay buffer was dispensed to column 24 (low control) and 5 μL 2× Factor XIa solution was dispensed to columns 1-23 (column 23 high control); • the plate was centrifuged with a “cover” plate at 500 rpm for 1 min • the plate was pre-incubated for 30 minutes at room temperature with plate covered; • 5 μL of 2×5Fam-[…]-K5Tamra peptide substrate was dispensed into the entire plate, columns 1-24; • the plate was centrifuged with a “cover” plate at 500 rpm for 1 min; • the plate was read monitoring fluorescence intensity on the BMG PHERAStar at room temperature, using fluorescence module 485 nm/520 nm.
(§1) Percent inhibition (IC50) curves were generated per compound tested, and data was analyzed using a 4-parameter logistic fit using GeneData Screener. The relative fluorescence unit (RFU) values were normalized to percent inhibition using the following equation:
% inhibition=((HC−LC)−(compound−LC)/(HC−LC))*100 where LC−low control=mean signal of no Factor XIa or 100% inhibition of Factor XIa; HC−high control=mean signal of Factor XIa+5Fam-[…]-K5Tamra peptide substrate with DMSO only.
(§2) An 11-point dose response curve for the test compound(s) was generated using GENDATA to determine IC50 value based on the following equation:
Y=Bottom+(Top−Bottom)/(1+10^((log IC50−X)*HillSlope)) where Y is the % inhibition in the presence of X inhibitor concentration, Top=high control=mean signal of Factor XIa+5Fam-[…]-K5Tamra peptide substrate with DMSO only; Bottom=low control−mean signal of no Factor XIa or 100% inhibition of Factor XIa; HillSlope−Hill coefficient; and IC50=concentration of compound with 50% inhibition in relation to top/high control.

Another experiment concerns the target human plasma kallikrein (Homo sapiens, UniProt P03952). Kind of experiment: Kallikrein inhibition assay (FLINT) utilizing a quenched AMC peptide substrate Z-Gly-Pro-Arg-AMC. It counts as biochemical. The note with it: kinetic (KIN) reads, read-out: Kallikrein KIN Inh IC50.
From the text: Biological Example 2: Kallikrein Inhibition Assay Utilizing a Quenched AMC Peptide Substrate A fluorescence intensity (FLINT) based assay was used to monitor inhibition of human plasma kallikrein. The peptide substrate, Z-Gly-Pro-Arg-AMC (Purchased from Bachem; Catalog #I-1150) was chosen based on its relatively low KM for kallikrein which enables running the assay at lower substrate concentrations to control background fluorescence.
The Kallikrein FLINT assay was used with the following Z-Gly-Pro-Arg-AMC assay buffer: 50 mM Tris, pH 7.5, 100 mM NaCl, 5 mM CaCl2, 0.1 mg/mL BSA, 0.03% CHAPS. Assay buffer was prepared by mixing all ingredients fresh. 2× Z-Gly-Pro-Arg-AMC peptide substrate was prepared by diluting 10 mM stock into 1× assay buffer for a 100 μM working concentration (50 μM final concentration). The 2× kallikrein stock solution was prepared by diluting 14.76 μM stock in 1× assay buffer for a 4 nM working stock solution (2 nM final concentration).
Test compound(s) were run in an 11-point, 3-fold serial dilution with a final top compound concentration of 1 μM. Final DMSO in assay was 2%. Plasma kallikrein was pre-incubated for 30-minute with compound and then 50 μM substrate was added to initiate the reaction. The assay was run with kinetic (KIN) reads at 5 min intervals over 30 minutes. The time course was linear using 2 nM kallikrein greater than 30 minutes. More specifically, the assay was run as follows: • 100 nL of 0.1 mM test compound was dispensed into black 384-well non-binding Greiner BioOne 784900 plate for 1 μM final concentration; • 5 μL of 1× assay buffer was dispensed to columns 24 (low control) and 5 μL 2× human kallikrein enzyme solution was dispensed to columns 1-23 (column 23 high control); • the plate was centrifuged with a “cover” plate at 500 rpm for 1 min • the plate was pre-incubated for 30 minutes at room temperature with plate covered; • 5 μL of 2× Z-Gly-Pro-Arg-AMC peptide substrate was dispensed into the entire plate, columns 1-24; • the plate was centrifuged with a “cover” plate at 500 rpm for 1 min; • the plate was read monitoring fluorescence intensity on the BMG PHERAStar at room temperature, using fluorescence module 340 nm/440 nm.
as §1
% inhibition=((HC−LC)−(compound−LC)/(HC−LC))*100 where LC—low control=mean signal of […] or 100% inhibition of human kallikrein enzyme; HC—high control=mean signal of […]+Z-Gly-Pro-Arg-AMC peptide substrate with DMSO only.
as §2
Y=Bottom+(Top−Bottom)/(1+10^((log IC50−X)*HillSlope)) where Y is the % inhibition in the presence of X inhibitor concentration, Top=high control=mean signal of human kallikrein enzyme+Z-Gly-Pro-Arg-AMC peptide substrate with DMSO only; Bottom=low control−mean signal of no human kallikrein enzyme or 100% inhibition of human kallikrein enzyme; HillSlope−Hill coefficient; and IC50=concentration of compound with 50% inhibition in relation to top/high control.

human plasma kallikrein, sequence (P03952 391-638 limits assumed): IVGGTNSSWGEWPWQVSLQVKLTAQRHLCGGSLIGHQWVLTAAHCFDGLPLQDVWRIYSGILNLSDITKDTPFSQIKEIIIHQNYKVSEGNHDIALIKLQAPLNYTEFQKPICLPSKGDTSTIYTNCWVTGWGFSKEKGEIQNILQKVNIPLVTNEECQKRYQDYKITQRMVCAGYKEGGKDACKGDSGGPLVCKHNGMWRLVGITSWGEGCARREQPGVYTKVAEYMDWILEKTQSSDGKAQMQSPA
human plasma kallikrein, sequence (P03952 20-390 partner limits assumed): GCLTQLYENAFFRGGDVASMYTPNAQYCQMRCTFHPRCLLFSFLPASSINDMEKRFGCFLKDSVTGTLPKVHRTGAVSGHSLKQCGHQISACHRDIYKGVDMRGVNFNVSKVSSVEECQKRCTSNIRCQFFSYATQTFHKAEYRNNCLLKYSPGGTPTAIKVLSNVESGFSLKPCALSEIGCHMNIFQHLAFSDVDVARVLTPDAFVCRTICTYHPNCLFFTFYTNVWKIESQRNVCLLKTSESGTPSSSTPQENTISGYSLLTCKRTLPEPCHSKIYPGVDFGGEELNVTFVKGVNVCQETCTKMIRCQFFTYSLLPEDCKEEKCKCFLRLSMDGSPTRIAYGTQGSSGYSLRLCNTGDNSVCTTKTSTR
Factor XIa, sequence (P03951 388-625 limits assumed): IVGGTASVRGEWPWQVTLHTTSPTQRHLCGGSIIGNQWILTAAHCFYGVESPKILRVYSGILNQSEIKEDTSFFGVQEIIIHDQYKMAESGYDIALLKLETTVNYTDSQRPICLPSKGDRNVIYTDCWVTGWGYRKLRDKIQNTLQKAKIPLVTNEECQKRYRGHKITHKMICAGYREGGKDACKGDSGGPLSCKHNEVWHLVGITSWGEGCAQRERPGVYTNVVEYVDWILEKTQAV
Factor XIa, sequence (P03951 19-387 partner limits assumed): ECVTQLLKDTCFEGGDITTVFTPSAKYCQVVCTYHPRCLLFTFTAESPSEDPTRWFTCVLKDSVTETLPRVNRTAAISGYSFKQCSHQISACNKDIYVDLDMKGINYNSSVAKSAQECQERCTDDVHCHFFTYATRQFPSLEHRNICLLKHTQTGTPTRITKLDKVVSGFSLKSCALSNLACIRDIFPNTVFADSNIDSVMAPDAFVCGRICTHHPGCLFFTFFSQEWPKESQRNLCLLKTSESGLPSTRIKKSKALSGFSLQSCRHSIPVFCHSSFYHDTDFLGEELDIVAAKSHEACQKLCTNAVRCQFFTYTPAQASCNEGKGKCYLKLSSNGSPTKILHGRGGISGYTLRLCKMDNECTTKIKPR

In the case of `C[C@@H]1C[C@@H](c2ncc(-c3ccc(N)nc3F)[nH]2)n2c1cc(-c1c(-n3cnnn3)ccc(Cl)c1F)cc2=O` [Example 66, (1R,3S)-3-(5-(6-Amino-2-fluoropyridin-3-yl)-1H-imidazol-2-yl)-7-(3-chloro-2-fluoro-6-(1H-tetrazol-1-yl)phenyl)-1-methyl-2,3-dihydroindolizin-5(1H)-one], the IC50 on Factor XIa (values in nM) stood at 0.4 nM; at human plasma kallikrein (values in nM) it was 3.6 nM.
In the case of `C[C@H]1C[C@@H](c2ncc(-c3ccc4nccn4c3)[nH]2)n2c1cc(-c1c(-n3cnnn3)ccc(Cl)c1F)cc2=O` (stereo in doubt) [Example 48, (1S*,3S*)-7-(3-Chloro-2-fluoro-6-(1H-tetrazol-1-yl)phenyl)-3-(5-(imidazo[1,2-a]pyridin-6-yl)-1H-imidazol-2-yl)-1-methyl-2,3-dihydroindolizin-5(1H)-one], the IC50 is 3000 nM on Factor XIa (unit μM) and > 10000 nM on human plasma kallikrein (unit μM).
Turning to `C[C@H]1C[C@@H](c2nc(-c3ncc(N)nc3Cl)c[nH]2)n2c1nc(-c1c(-n3cnnn3)ccc(Cl)c1F)cc2=O` [Example 93, (6S,8S)-6-(4-(5-Amino-3-chloropyrazin-2-yl)-1H-imidazol-2-yl)-2-(3-chloro-2-fluoro-6-(1H-tetrazol-1-yl)phenyl)-8-methyl-7,8-dihydropyrrolo[1,2-a]pyrimidin-4(6H)-one], the IC50 on Factor XIa (values in nM) was 0.5 nM; on human plasma kallikrein (values in nM), 20.8 nM.
With `C[C@@H]1C[C@H](c2ncc(-c3ccc4nccn4c3)[nH]2)n2c1cc(-c1c(-n3cnnn3)ccc(Cl)c1F)cc2=O` (stereo in doubt) [Example 49, (1R*,3R*)-7-(3-Chloro-2-fluoro-6-(1H-tetrazol-1-yl)phenyl)-3-(5-(imidazo[1,2-a]pyridin-6-yl)-1H-imidazol-2-yl)-1-methyl-2,3-dihydroindolizin-5(1H)-one], the IC50 was determined as 24.2 nM at Factor XIa (values in nM) and 44.3 nM on human plasma kallikrein (values in nM).
Consider `C[C@H]1C[C@@H](c2ncc(-c3ccc(=O)[nH]c3)[nH]2)n2c1cc(-c1c(-n3cnnn3)ccc(Cl)c1F)cc2=O` [Example 16, (1S,3S)-7-(3-Chloro-2-fluoro-6-(1H-tetrazol-1-yl)phenyl)-1-methyl-3-(5-(6-oxo-1,6-dihydropyridin-3-yl)-1H-imidazol-2-yl)-2,3-dihydroindolizin-5(1H)-one], for which the IC50 was found to be 78.1 nM at Factor XIa (values in nM) and 447 nM at human plasma kallikrein (values in nM).
In the case of `COc1cc(-c2cnc([C@@H]3C[C@H](C)c4nc(-c5c(-n6cnnn6)ccc(Cl)c5F)cc(=O)n43)[nH]2)ccn1` (stereo in doubt) [Example 97, (6*S,8*S)-2-(3-Chloro-2-fluoro-6-(1H-tetrazol-1-yl)phenyl)-6-(5-(2-methoxypyridin-4-yl)-1H-imidazol-2-yl)-8-methyl-7,8-dihydropyrrolo[1,2-a]pyrimidin-4(6H)-one], the results for the half-maximal inhibitory concentration (IC50) on Factor XIa (unit μM) and at human plasma kallikrein (unit μM) were 6400 nM and > 10000 nM, respectively.
Take `Cc1c(-c2cnc([C@@H]3C[C@H](C)c4cc(-c5c(-n6cnnn6)ccc(Cl)c5F)cc(=O)n43)[nH]2)ccnc1C#N` (relative stereo) [Example 33, 4-(2-((1S*,3S*)-7-(3-Chloro-2-fluoro-6-(1H-tetrazol-1-yl)phenyl)-1-methyl-5-oxo-1,2,3,5-tetrahydroindolizin-3-yl)-1H-imidazol-5-yl)-3-methylpicolinonitrile]: the IC50 at Factor XIa (values in nM) was 6.8 nM; at human plasma kallikrein (values in nM), 152 nM.
Regarding `C[C@H]1C[C@@H](c2ncc(-c3ccc4c(=O)cc[nH]c4c3)[nH]2)n2c1nc(-c1c(-n3cnnn3)ccc(Cl)c1F)cc2=O` (relative stereo) [Example 102, 7-(2-((6*S,8*S)-2-(3-Chloro-2-fluoro-6-(1H-tetrazol-1-yl)phenyl)-8-methyl-4-oxo-4,6,7,8-tetrahydropyrrolo[1,2-a]pyrimidin-6-yl)-1H-imidazol-5-yl)quinolin-4(1H)-one], the results for the IC50 at Factor XIa (values in nM) and at human plasma kallikrein (values in nM) were 18.2 nM and 446 nM, respectively.
For `C[C@H]1CC(c2nc(F)c(-c3ccc(N)nc3)[nH]2)n2c1cc(-c1c(-n3cnnn3)ccc(Cl)c1F)cc2=O` (stereo in doubt) [Example 40, (1*S,3*S)-3-(5-(6-Aminopyridin-3-yl)-4-fluoro-1H-imidazol-2-yl)-7-(3-chloro-2-fluoro-6-(1H-tetrazol-1-yl)phenyl)-1-methyl-2,3-dihydroindolizin-5(1H)-one], the IC50 at Factor XIa (values in nM) came out at 286 nM; on human plasma kallikrein (unit μM), 6400 nM.
As to `C[C@H]1C[C@@H](c2ncc(-c3ccc(N)nc3F)[nH]2)n2c1nc(-c1c(-n3cnnn3)ccc(Cl)c1F)cc2=O` (stereo in doubt) [Example 150, (6S*,8S*)-6-(5-(6-Amino-2-fluoropyridin-3-yl)-1H-imidazol-2-yl)-2-(3-chloro-2-fluoro-6-(1H-tetrazol-1-yl)phenyl)-8-methyl-7,8-dihydropyrrolo[1,2-a]pyrimidin-4(6H)-one], the IC50 on Factor XIa (values in nM) amounted to 0.9 nM; at human plasma kallikrein (values in nM), 25.9 nM.
For `C[C@@H]1C[C@H](c2nc(-c3ncc(N)nc3Cl)c[nH]2)n2c1nc(-c1c(-n3cnnn3)ccc(Cl)c1F)cc2=O` (single isomer, unassigned) [Example 94, (6*R,8R)-6-(4-(5-Amino-3-chloropyrazin-2-yl)-1H-imidazol-2-yl)-2-(3-chloro-2-fluoro-6-(1H-tetrazol-1-yl)phenyl)-8-methyl-7,8-dihydropyrrolo[1,2-a]pyrimidin-4(6H)-one], in that order: 1.2 nM and 12 nM.

The record behind these values is patent US20230097157A1, “Bicyclic Pyridin-2-one and pyrimidin-4-one Derivatives Useful As a Factor XIa Inhibitors” (Janssen Pharmaceutica NV, priority 2021, published 2023).
